Entries after “also recorded” stand apart in the source; their conditions may differ.
Tested on: matrix cells
Test: Culture-amplification of hair matrix cells on a 3T3 feeder layer in the presence of Y27632
Format: cell-based, human
Details: matrix cells cultured on mitomycin-blocked 3T3 feeder layer, Green-based medium, 10 μM of Y27632
Description: Some authors have proposed culturing these cells in coculture with papilla fibroblasts. The drawback of this method is that the culture obtained is not homogeneous, the matrix cells are contaminated with the dermal fibroblasts from the papilla used in coculture (Reynolds A J, Lawrence […] Human hair follicle germinative epidermal cell culture. J Invest Dermatol. 1993 October; 101(4):634-8). Luo et al. have proposed a technique of microdissection followed by culture of the matrix cells on a plastic support (Luo et al: Methods for culturing hair follicle epithelial matrix cells; Reg. number: H1610; Nov. 5, 1996). However, this microdissection technique results in a very low yield of matrix cells. The applicant has isolated the matrix cells and developed a process for culturing these cells. […] keratinocytes until they reach confluence while forming regular clusters. The cells are amplified according to the technique of Rheinwald and Green (Cell, vol. 6, 331-344,1975) by culturing on a feeder support constituted of fibroblasts in a suitable medium known to those skilled in the art, in the presence of growth factors, in particular amino acids, serum, cholera toxin, insulin, triiodothyronine and pH buffer solution. […]

C[C@@H](N)[C@H]1CC[C@H](C(=O)Nc2ccncc2)CC1 [Y27632]
differentiation of matrix cells into keratinocytes positive for K85 K35 markers: differentiation thereof into keratinocytes that are positive for the K85 K35 markers; also recorded: differentiate into K85 K35 keratinocytes
proliferation of matrix cells in culture: considerable proliferation; also recorded: proliferate rapidly
